Assay results taken from US11833119B2, “Combination therapies for the treatment of hepatocellular carcinoma” (priority 2018, dated 2023).

Tests used:
[1] = system: Hep3B xenograft (human hepatocellular cancer cell line); assay: Hep3B cells xenograft in vivo study, antitumor activity; design: species or system BALB/c nu/nu female mice; settings: for Tumor growth inhibition % (TGI): 53 days
Protocol: The cell line used, Hep3B (also called HEP3B.1-7), was sourced from American Type Culture Collection (ATCC), verified free of […] contamination and verified for identity by short tandem repeat analysis of 9 markers.
For the human hepatocellular cancer cell line Hep3B xenografts, Hep3B cells were cultured in RPMI1640 medium containing 10% FBS at 37° C. in a 5% CO2 atmosphere and kept in exponential growth phase. For harvesting, the cells were washed with PBS, incubated with 0.25% trypsin-EDTA, and suspended in a 1:1 mixture of RPMI1640 medium containing 10% FBS. To prepare the inoculum at a final concentration of 5×10^7 cells/mL, the cell were spun and resuspended in RPMI1640 and Matrigel (Corning). To generate xenografts, 0.1-mL of the inoculum was injected subcutaneously into the right flank region of BALB/c nu/nu female mice, approximately 8-week-old, weighing 18-20 g, giving a final concentration of 5×10^6 cells/mouse.
When the mean tumor volume (TV) reached approximately 170 mm^3 (10 days after implantation), mice were selected based on their TVs, and were sorted into multiple treatment groups with 8 animals per group. Per os (PO) treatment with Compound 1 (300 mg/kg for Hep3B and 500 mg/kg for LIX125) alone or in combination with lenvatinib vehicle (control) or lenvatinib (10 mg/kg or 3 mg/kg) administered once daily (QD). Additional groups included treatment with lenvatinib (10 mg/kg or 3 mg/kg) in combination with Compound 1 vehicle. (Lenvatinib vehicle includes the vehicle in which lenvatinib is administered; but, without any lenvatinib. Likewise, Compound 1 vehicle includes the vehicle in which Compound 1 is administered; but, without any Compound 1.)
The administration volume (0.1 mL/10 g body weight) was calculated from the individual mouse body weight (BW) before administration. Body weights were measured daily and tumor measurements were performed twice weekly. Mice with >20% body weight loss compared with their day 1 body weight or bearing tumors with the longest diameter […] were immediately euthanized to prevent any pain or suffering for the animal.
(§1) The tumor volume (TV) in mm^3 was calculated according to the following formula: TV=length×width^2×0.5 length: largest diameter of tumor (mm) width: diameter perpendicular to length (mm). The tumor growth inhibition % (TGI) was calculated according to the following formula: Tumor growth inhibition % (TGI)=[(Average control TV day X−Treatment TV day X)/(Average control TV day X)]×100, where day X is any day of the treatment. The antitumor effects of the treatment, partial regression (PR) and complete regression (CR), stable disease (SD), and progressive disease (PD) were defined as follows: […]
PD: 3 consecutive measurements >120% of starting volume or 3 consecutive increasing measurements from best response; SD: 3 consecutive measurements >50% and <120% of starting volume; PR: 3 consecutive measurements <50% of starting volume; CR: 3 consecutive measurements <30 mm^3.
Data represent the mean±SEM for tumor volume (N=8). The differences in TV between groups were analyzed by multiple unpaired t-tests with significance determined using the Holm-Sidak method. Statistical analyses were performed using the GraphPad Prism version 7 (GraphPad Software, La Jolla, CA).
To determine whether lenvatinib enhances tumor growth inhibition (TGI) exerted by Compound 1, the Hep3B cell line was grown as a xenograft in female nude immunocompromised mice. Tumor bearing mice were orally treated daily for 53 days with (a) 300 mg/kg Compound 1 as single agent with lenvatinib vehicle; (b)(i) 10 mg/kg lenvatinib as a single agent with Compound 1 vehicle; (b)(ii) 3 mg/kg lenvatinib as a single agent with Compound 1 vehicle; (c)(i) 300 mg/kg Compound 1 and 10 mg/kg lenvatinib in combination; or (c)(ii) 300 mg/kg Compound 1 and 3 mg/kg lenvatinib in combination.

[2] = system: LIX125, a hepatocellular carcinoma patient derived xenograft (PDX) model; assay: LIX125 PDX xenograft in vivo study, antitumor activity; settings: 32 days
Protocol: The human primary hepatocellular model LIX125 from ChemPartner (shangpharma.com) was implanted into the female severe combined immunodeficiency (SCID) mice. When the tumors developed in mice, they were sacrificed and the resected tumors were implanted into female NU/NU mice for tumor preservation, histological diagnosis and in vivo efficacy study. Solid tumor tissues were depleted of necrotic components, cut into 10-15 mg pieces and mixed. Three to five pieces were mixed with […] Matrigel and implanted into a flank of 6-8 week old female NU/NU immune compromised mice weighing 18-20 g. All of the primary tumors utilized in this study had undergone 3 to 5 passages in vivo and the tumor histology of each was maintained over the serial transplantation.
When the mean tumor volume (TV) reached approximately 170 mm^3 (10 days after implantation), mice were selected based on their TVs, and were sorted into multiple treatment groups with 8 animals per group. Per os (PO) treatment with Compound 1 (300 mg/kg for Hep3B and 500 mg/kg for LIX125) alone or in combination with lenvatinib vehicle (control) or lenvatinib (10 mg/kg or 3 mg/kg) administered once daily (QD). […]
The administration volume (0.1 mL/10 g body weight) was calculated from the individual mouse body weight (BW) before administration. Body weights were measured daily and tumor measurements were performed twice weekly. […]
as §1, with “treatment.” for “treatment. The antitumor effects of the treatment, partial regression (PR) and complete regression (CR), stable disease (SD), and progressive disease (PD) were defined as follows:”
Data represent the mean±SEM for tumor volume (N=8). The differences in TV between groups were analyzed by multiple unpaired t-tests with significance determined using the Holm-Sidak method. […]

## C=CC(=O)Nc1cc(N2CCN(CC)CC2)ccc1Nc1cc(N(C)C(=O)Nc2c(Cl)c(OC)cc(OC)c2Cl)ncn1 [Compound 1, N-(2-((6-(3-(2,6-dichloro-3,5-dimethoxyphenyl)-1-methylureido)pyrimidin-4-yl)amino)-5-(4-ethylpiperazin-1-yl)phenyl)acrylamide]
[1]; Compound 1 300 mg/kg PO QD single agent with lenvatinib vehicle, vs vehicle control P<0.00001
  Tumor growth inhibition % (TGI): 81%
[1]; Compound 1 300 mg/kg single agent, PD: 3 consecutive measurements >120% of starting volume or 3 consecutive increasing measurements from best response
  animals with progressive disease (PD): 6/8
[2]; Compound 1 500 mg/kg PO QD single agent, vs vehicle controls p>0.05
  Tumor growth inhibition % (TGI): 60%

## COc1cc2nccc(Oc3ccc(NC(=O)NC4CC4)c(Cl)c3)c2cc1C(N)=O [Lenvatinib, 4-[3-chloro-4-(N′-cyclopropylureido)phenoxy]-7-methoxyquinoline-6-carboxamide]
[1]; lenvatinib 3 mg/kg PO QD single agent with Compound 1 vehicle, vs vehicle controls P>0.05
  Tumor growth inhibition % (TGI): 23%
[1]; lenvatinib 3 mg/kg single agent
  animals with progressive disease (PD): 8/8
[1]; lenvatinib 10 mg/kg PO QD single agent with Compound 1 vehicle, vs vehicle controls P<0.00005
  Tumor growth inhibition % (TGI): 58%
[1]; lenvatinib 10 mg/kg single agent
  animals with progressive disease (PD): 8/8
[2]; lenvatinib 3 mg/kg PO QD single agent, vs vehicle control p>0.05
  Tumor growth inhibition % (TGI): 44%
[2]; lenvatinib 10 mg/kg PO QD single agent, vs vehicle control p<0.0007
  Tumor growth inhibition % (TGI): 72%
